Results as given in patent US9580390B2, “Indazole compounds as kinase inhibitors and method of treating cancer with same” (University Health Network, priority 2011, dated 2017).
Where two headings read alike, the source gives them in different places.

Experiments:
[1] = target: T1, human PLK4 (Homo sapiens, UniProt O00444); experiment: PLK4 inhibition assay (indirect ELISA); assay type: biochemical; conditions: 15 μM ATP
T1 construct: amino terminal GST fusion of residues 1-391 of human PLK4; made in house; host or cells: E. coli
T1 sequence (O00444 1-391): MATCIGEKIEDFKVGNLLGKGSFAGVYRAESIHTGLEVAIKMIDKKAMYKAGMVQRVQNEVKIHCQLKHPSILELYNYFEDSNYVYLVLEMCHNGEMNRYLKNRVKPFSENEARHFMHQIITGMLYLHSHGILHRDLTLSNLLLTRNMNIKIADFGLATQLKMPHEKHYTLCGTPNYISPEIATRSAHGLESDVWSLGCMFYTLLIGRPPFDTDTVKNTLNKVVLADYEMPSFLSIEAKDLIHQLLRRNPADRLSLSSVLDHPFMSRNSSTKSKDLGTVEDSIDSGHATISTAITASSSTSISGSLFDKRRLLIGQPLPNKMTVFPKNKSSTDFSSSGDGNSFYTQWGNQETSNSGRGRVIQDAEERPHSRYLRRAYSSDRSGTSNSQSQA
Summary of the method: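 Dephosphorylated GST-PLK4 (residues 1-391, E. coli; 4 nM) was preincubated 15 min with compound, then reacted 30 min with 15 μM ATP in HEPES pH 7.4, MgCl2, Brij 35 on MBP-coated plates. Phospho-MBP was detected by antibody/HRP ELISA at 450 nm; IC50 from 10-point titration by 4-parameter logistic fit, or single 10 μM % inhibition.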

[2] = test system: colon cancer cells (HCT116); experiment: Cancer cell line growth inhibition (SRB assay); assay type: cell-based; conditions: Homo sapiens, HCT-116, read-out: Cancer Cell Line GI50 Range HCT116
[3] = test system: TICs (Colon 12); experiment: Colon tumor-initiating cell growth inhibition (Alamar Blue); assay type: cell-based; conditions: 216 h, 9 days, read-out: Tumor Initiating Cell GI50 Range Colon 12
[4] = test system: ovarian cancer cells (PA-1); experiment: Cancer cell line growth inhibition (SRB assay); assay type: cell-based; conditions: read-out: Cancer Cell Line GI50 Range PA-1
[5] = test system: TICs (Ovarian 2393A); experiment: Ovarian tumor-initiating cell growth inhibition (Alamar Blue); assay type: cell-based; conditions: 144 h, 6 days, read-out: Tumor Initiating Cell GI50 Range Ovarain 2393A
[6] = test system: Breast cancer cells; experiment: Cancer cell line growth inhibition (SRB assay); assay type: cell-based; conditions: Homo sapiens; MDA-MB-468; read-out: Cancer Cell Line GI50 Range MDA-MB-468
[7] = target: T2, human TTK (Homo sapiens, UniProt P33981); experiment: TTK inhibition assay (indirect ELISA); assay type: biochemical; conditions: read-out: TTK IC50 Range
T2 construct: amino terminal GST fusion of full length human TTK; purchased Invitrogen
T2 sequence (P33981 1-857): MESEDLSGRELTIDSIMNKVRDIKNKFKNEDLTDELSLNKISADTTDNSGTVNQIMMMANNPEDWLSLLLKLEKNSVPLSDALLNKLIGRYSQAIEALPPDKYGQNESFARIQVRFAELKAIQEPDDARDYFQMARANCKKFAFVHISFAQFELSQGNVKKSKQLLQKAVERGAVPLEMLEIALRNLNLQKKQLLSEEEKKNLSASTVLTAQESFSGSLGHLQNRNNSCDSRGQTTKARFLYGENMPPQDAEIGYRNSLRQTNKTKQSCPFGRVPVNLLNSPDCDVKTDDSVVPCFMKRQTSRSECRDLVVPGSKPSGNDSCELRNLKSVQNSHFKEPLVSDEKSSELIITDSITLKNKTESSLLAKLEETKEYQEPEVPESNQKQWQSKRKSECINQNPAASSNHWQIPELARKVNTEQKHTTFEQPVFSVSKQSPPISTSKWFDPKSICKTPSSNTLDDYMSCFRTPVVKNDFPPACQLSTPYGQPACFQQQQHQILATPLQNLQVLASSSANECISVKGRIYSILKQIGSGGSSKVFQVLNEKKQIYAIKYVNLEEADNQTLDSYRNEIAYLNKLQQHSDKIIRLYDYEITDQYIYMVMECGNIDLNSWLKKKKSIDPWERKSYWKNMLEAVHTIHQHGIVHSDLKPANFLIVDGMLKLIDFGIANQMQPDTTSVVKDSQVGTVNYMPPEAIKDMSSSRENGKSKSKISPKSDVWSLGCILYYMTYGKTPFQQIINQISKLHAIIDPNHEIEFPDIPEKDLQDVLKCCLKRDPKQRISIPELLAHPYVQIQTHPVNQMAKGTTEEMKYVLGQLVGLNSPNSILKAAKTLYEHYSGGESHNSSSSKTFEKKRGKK

[8] = HCT116 colon cancer cells, SRB assay
[9] = PA-1 ovarian cancer cells, SRB assay

IC50 [1]	GI50 [2, 8]	GI50 ([3]; colon TICs, Alamar Blue)	GI50 [4, 9]	GI50 ([5]; ovarian TICs, Alamar Blue)	Structure (SMILES)	GI50 [6]	GI50 [2]	GI50 ([3]; Colon 12 TICs)	IC50 [7]	GI50 ([4]; Homo sapiens, PA-1)	GI50 ([5]; Ovarian 2393A TICs)
< 50 nM	< 100 nM	< 100 nM	100 to 500 nM	< 100 nM	CN1CCC(Oc2ccc(-c3n[nH]c4ccc(C(=O)N[C@H](c5sccc5Cl)C5CC5)cc34)cc2)CC1 [Example A167, (S)-N-((3-chlorothiophen-2-yl)(cyclopropyl)methyl)-3-(4-((1-methylpiperidin-4-yl)oxy)phenyl)-1H-indazole-5-carboxamide]						
< 50 nM	100 to 500 nM	> 500 nM	100 to 500 nM	> 500 nM	CO[C@@H](C(=O)Nc1ccc2[nH]nc(-c3ccc(OC4CCN(C=O)CC4)cc3)c2c1)c1ccccc1 [Example A169, (R)-N-(3-(4-((1-formylpiperidin-4-yl)oxy)phenyl)-1H-indazol-5-yl)-2-methoxy-2-phenylacetamide]						
< 50 nM	< 100 nM	100 to 500 nM	< 100 nM	< 100 nM	COCCN1CCC(Oc2ccc(-c3n[nH]c4ccc(NC(=O)C(c5ccsc5)N5CCCC5)cc34)cc2)CC1 (stereo not shown) [Example A175, N-(3-(4-((1-(2-methoxyethyl)piperidin-4-yl)oxy)phenyl)-1H-indazol-5-yl)-2-(pyrrolidin-1-yl)-2-(thiophen-3-yl)acetamide]						
< 50 nM	100 to 500 nM	100 to 500 nM	100 to 500 nM	100 to 500 nM	O=CN1CCC(Oc2ccc(-c3n[nH]c4ccc(NC(=O)C(c5ccccn5)C5CCCC5)cc34)cc2)CC1 (stereo not shown) [Example A176, 2-cyclopentyl-N-(3-(4-((1-formylpiperidin-4-yl)oxy)phenyl)-1H-indazol-5-yl)-2-(pyridin-2-yl)acetamide]						
< 50 nM	100 to 500 nM	100 to 500 nM	100 to 500 nM	> 500 nM	CCOC(C(=O)Nc1ccc2[nH]nc(-c3ccc(OC4CCN(C)CC4)cc3)c2c1)c1ccccc1 (stereo not shown) [Example A181, 2-ethoxy-N-(3-(4-((1-methylpiperidin-4-yl)oxy)phenyl)-1H-indazol-5-yl)-2-phenylacetamide]						
< 50 nM	< 100 nM	100 to 500 nM	< 100 nM	< 100 nM	O=C(Nc1ccc2[nH]nc(-c3ccc(OC4CCN(C5COC5)CC4)cc3)c2c1)C(c1ccsc1)N1CCCC1 (stereo not shown) [Example A184, N-(3-(4-((1-(oxetan-3-yl)piperidin-4-yl)oxy)phenyl)-1H-indazol-5-yl)-2-(pyrrolidin-1-yl)-2-(thiophen-3-yl)acetamide]						
< 50 nM	< 100 nM	< 100 nM	< 100 nM	< 100 nM	O=CN1CCC(Oc2ccc(-c3n[nH]c4ccc(C(=O)NC(c5ccsc5)C5CC5)cc34)cc2)CC1 (stereo not shown) [Example A186, N-(cyclopropyl(thiophen-3-yl)methyl)-3-(4-((1-formylpiperidin-4-yl)oxy)phenyl)-1H-indazole-5-carboxamide]						
< 50 nM	< 100 nM	100 to 500 nM	< 100 nM	> 500 nM	CC(C)OC(C(=O)Nc1ccc2[nH]nc(-c3ccc(OC4CCN(C)CC4)cc3)c2c1)c1ccccc1 (stereo not shown) [Example A187, 2-isopropoxy-N-(3-(4-((1-methylpiperidin-4-yl)oxy)phenyl)-1H-indazol-5-yl)-2-phenylacetamide]						
< 50 nM	100 to 500 nM	> 500 nM	100 to 500 nM	> 500 nM	CN1CCC(Oc2ccc(-c3n[nH]c4ccc(C(=O)NC(c5ccccc5)C5CC5)cc34)cc2Cl)CC1 (stereo not shown) [Example A188, 3-(3-chloro-4-((1-methylpiperidin-4-yl)oxy)phenyl)-N-(cyclopropyl(phenyl)methyl)-1H-indazole-5-carboxamide]						
< 50 nM	< 100 nM	< 100 nM	< 100 nM	100 to 500 nM	CC[C@H](NC(=O)c1ccc2[nH]nc(-c3ccc(OC4CCN(C5COC5)CC4)cc3)c2c1)c1ccccc1Cl [Example A193, (S)-N-(1-(2-chlorophenyl)propyl)-3-(4-((1-(oxetan-3-yl)piperidin-4-yl)oxy)phenyl)-1H-indazole-5-carboxamide]						
< 50 nM	< 100 nM	100 to 500 nM	< 100 nM	100 to 500 nM	CN1CCC(Oc2ccc(-c3n[nH]c4ccc(C(=O)N[C@H](CCO)c5ccccc5)cc34)cc2Cl)CC1 [Example A202, (R)-3-(3-chloro-4-((1-methylpiperidin-4-yl)oxy)phenyl)-N-(3-hydroxy-1-phenylpropyl)-1H-indazole-5-carboxamide]						
< 50 nM					C[C@@H](O)CN1CCC(Oc2ccc(-c3n[nH]c4ccc(C(=O)N[C@@H](c5ccsc5)C5CCCC5)cc34)cc2)CC1 [Example A222, N-((R)-cyclopentyl(thiophen-3-yl)methyl)-3-(4-((1-((R)-2-hydroxypropyl)piperidin-4-yl)oxy)phenyl)-1H-indazole-5-carboxamide]	100 to 500 nM	< 100 nM	< 100 nM	< 100 nM	< 100 nM	100 to 500 nM
< 50 nM					CC(C)[C@H](NC(=O)c1ccc2[nH]nc(-c3ccc(OC4CCN(C=O)CC4)cc3)c2c1)c1ccccc1Cl [Example A334, (S)-N-(1-(2-chlorophenyl)-2-methylpropyl)-3-(4-((1-formylpiperidin-4-yl)oxy)phenyl)-1H-indazole-5-carboxamide]		< 100 nM	< 100 nM	< 100 nM	< 100 nM	< 100 nM

Structure (SMILES)	IC50 [1]	GI50 [2, 8]	GI50 ([3]; colon TICs, Alamar Blue)	GI50 [4, 9]	GI50 ([5]; ovarian TICs, Alamar Blue)	GI50 [6]	GI50 [2]	GI50 ([3]; Colon 12 TICs)	IC50 [7]	GI50 ([4]; Homo sapiens, PA-1)	GI50 ([5]; Ovarian 2393A TICs)
CN1C2CCC1CC(Oc1ccc(-c3n[nH]c4ccc(C(=O)N[C@@H](c5ccccc5Cl)C5CC5)cc34)cc1)C2 (stereo partly drawn) [Example A234, N-((R)-(2-chlorophenyl)(cyclopropyl)methyl)-3-(4-(((1R,3R,5S)-8-methyl-8-azabicyclo[3.2.1]octan-3-yl)oxy)phenyl)-1H-indazole-5-carboxamide]	< 50 nM					100 to 500 nM	< 100 nM	100 to 500 nM	< 100 nM	< 100 nM	100 to 500 nM
CN1C2CCC1CC(Oc1ccc(-c3n[nH]c4ccc(C(=O)N[C@H](c5ccccc5Cl)C5CC5)cc34)cc1)C2 (stereo partly drawn) [Example A235, N-((S)-(2-chlorophenyl)(cyclopropyl)methyl)-3-(4-(((1R,3R,5S)-8-methyl-8-azabicyclo[3.2.1]octan-3-yl)oxy)phenyl)-1H-indazole-5-carboxamide]	< 50 nM					< 100 nM	< 100 nM	< 100 nM	< 100 nM	< 100 nM	< 100 nM
CC(C)[C@H](NC(=O)c1ccc2[nH]nc(-c3ccc(OC4CC5CCC(C4)N5C=O)cc3)c2c1)c1ccccc1Cl (stereo partly shown) [Example A333]	< 50 nM						< 100 nM	< 100 nM	< 100 nM	< 100 nM	< 100 nM
